{"source": "patent US20120178695A1", "about": "“METHODS OF TREATING NEUROPATHIC PAIN” (priority 2009, published 2012)", "key": {"[1]": {"test_system": "rat formalin model of tonic pain", "experiment": "rat formalin model of tonic pain", "type": "in vivo", "conditions": "for antinociceptive efficacy (percentage analgesia, late phase response): subcutaneous before formalin, second phase 10-40 min after formalin", "method": "FIG. 1 depicts the antinociceptive actions of GLYX-13 and gabapentin in the rat formalin model of tonic pain. Percentage analgesia is the percentage reduction (on the basis of the area under the curve for vehicle+formalin) in flinches in the late phase response (10-40 min) after intraplantar formalin injection ([…] of 5% formalin) compared with control values arbitrarily set at 100%. Drugs were administered subcutaneously, 15 min before formalin. N=8-10 per group. Mean±SEM.\nAntinociceptive actions of GLYX-13 were conducted in a rat formalin assay. Male Sprague-Dawley rats (125-170 g) were manually restrained for a subcutaneous injection of 1.5% formalin ([…] with a 26 ga needle) into the lateral footpad on the plantar surface of the left hind paw. After formalin injections, rats were placed in individual clear plastic cylinders of 30 cm diameter. Drug effects on the second phase of the pain response were monitored with observations conducted over the period between 10 and 40 min after formalin injection. Each group was composed of 10 animals. Vehicle, GLYX-13, or gabapentin was administered subcutaneously at the nape of the neck 10 min before the formalin injection. The time spent licking or elevating the injected limb was quantitated over this […] observation period."}, "[2]": {"test_system": "acetic-acid induced writhing model in mice", "experiment": "acetic-acid induced writhing model in mice", "type": "in vivo, mouse", "conditions": "male mice; 1, 5, and 10 mg/kg i.v., 5 min before i.p. 0.5% acetic acid", "method": "GLYX-13 was tested for antinociceptive activity in an acetic-acid induced writhing model in mice. Groups of 10 male mice were dosed i.v. with either saline or GLYX-13 at 1, 5, or 10 mg/kg. Five minutes later, each mouse was injected i.p. with a solution of 0.5% acetic acid in 0.9% saline and observed for writhing behavior for five minutes. The total number of writhes for each mouse was recorded and the mean number of writhes was compared between the control and GLYX-13 treated groups."}, "[3]": {"experiment": "ataxia on rotor-rod apparatus", "type": "in vivo", "conditions": "30 min after 5, 50, or 500 mg/kg intravenous administration"}, "[4]": {"test_system": "rodent peripheral neuropathy model", "experiment": "second peripheral neuropathy study, mechanical allodynia (Example 6)", "type": "in vivo, rat", "conditions": "5 mg/kg i.v.", "method": "(§1) FIG. 3 depicts the results of groups of 12 male rats subjected to chronic constriction injury to the right hind limb. Following development of peripheral neuropathy, rats were 5 administered GLYX-13, i.v. at 5, 10 or 20 mg/kg on days 12 and 13 post-operative (PO). Rats were tested for mechanical allodynia at 15 and 60 minutes post-dose on day 13 PO. The data represent mechanical allodynia readings at 60 minutes post-dose.\nA second peripheral neuropathy study was performed with GLYX-13 in male Sprague- Dawley rats. A peripheral mononeuropathy was induced in the right hind limb and rats were tested for development of mechanical allodynia. Rats that had positively developed neuropathy were administered vehicle (0.9% saline) or GLYX-13 i.v. at doses of 5, 10, or 20 mg/kg on days 12 and 13 PO. Testing for mechanical allodynia was performed at 15 and 60 minutes post-dose. […] In this rodent peripheral neuropathy model, i.v. administration of5 mg/kg GLYX-13 to male rats caused a significant reduction in the sensitivity of the nerve injured hind paw to mechanical allodynia at both 15 and 60 minutes post dose. There was no evidence of any systemic or contralateral effects in this study."}, "[5]": {"test_system": "intraplantar formalin pain, late phase", "experiment": "formalin test 8 days after a single dose (Example 7)", "type": "in vivo, rat", "conditions": "1 dose 3 mg/kg i.v. 8 days before intraplantar formalin (1.5%)", "method": "FIG. 4 depicts mean±SEM percent analgesia in the late phase (30-50 min) in 3 month old Sprague-Dawley rats pretreated with GLYX-13 (3 mg/kg i.v.), ketamine (10 mg/kg i.v.) or saline vehicle injection (1 mg/ml i.v. tail vein) in freely behaving rats 8 days before left rear paw intraplantar injections (50 μl) of formalin (1.5%). Analgesia is % reduction in licking time, number of flinches, or total pain score (favoring+2×foot up+3×licking time). […] N=10-11 per group. * P<0.05 Fisher PLSD post hoc drug vs. all other groups.\nFreely behaving 3 month old Sprague Dawley rats were pretreated with GLYX -13 (3 mg/kg i.v.), ketamine (10 mg/kg i.v.) or saline vehicle injection (1 mg/ml i.v. tail vein) 8 days before left rear paw intraplantar injections (50 μl) of formalin (1.5%)."}, "[6]": {"experiment": "blood-brain barrier crossing"}, "[7]": {"test_system": "Randall-Selitto paw pressure model", "experiment": "Randall-Selitto paw pressure model in rats", "type": "in vivo, rat", "method": "The purpose of this study was to assess the potential effect of GLYX-13 upon the pain threshold in rats using the Randall-Selitto paw pressure model. Groups of 10 male rats (20 for saline vehicle control) were injected with a 20% suspension of yeast in the right hind paw and two hours later, each rat was intravenously administered either saline or GLYX-13 at 1, 5, or 10 mg/kg. The response to mechanical pain stimulus was determined for both the inflamed and non-inflamed paw using an analgesia meter. The amount of force required to elicit paw withdrawal was measured for each rat."}, "[8]": {"test_system": "chronic constriction nerve injury model of neuropathic pain", "experiment": "chronic constriction nerve injury model of neuropathic pain (Example 1)", "type": "in vivo, rat", "conditions": "5 mg/kg intravenously; 15 and 60 minutes after dosing", "method": "Next, GLYX-13 was evaluated in the chronic constriction nerve injury model of neuropathic pain; 5 mg/kg GLYX-13. Male Sprague-Dawley rats (200-225 g) were anesthetized with sodium pentobarbitone (6 mg/kg, intraperitoneally) and supplemented as necessary with isoflurane (1-3% in oxygen). Under asceptic conditions, the right sciatic nerve was exposed by blunt dissection at the mid thigh level and 1 cm freed of adhering connective tissue. Four chromic catgut (4.0) ligatures were tied to lightly constrict the nerve at 1 mm intervals. The overlying muscle and skin were sutured and, upon recovery from anesthesia, the rats returned to cages of soft padded bedding and to cages with sawdust bedding after 24 h. At days 5, 7, 9, and 11 post recovery, mechanical […] was assessed with Von Frey filaments (calibration numbers, 3.61-6.10) applied to the plantar surface of the hind paw from below. The filaments were evaluated in ascending order with the threshold for both the ipsilateral and contralateral paws being evaluated. The withdrawal threshold was defined as the lowest force of two or more consecutive Von Frey filaments to elicit a withdrawal reflex. […]\nThe antinociceptive actions of vehicle or GLYX-13 (5 mg/kg) were evaluated at 15 and 60 minutes after dosing. […]"}, "[9]": {"test_system": "radiant heat tail flick response", "experiment": "radiant heat tail flick study in rats", "type": "in vivo, rat", "conditions": "male rats; 1, 5, and 10 mg/kg i.v., five minutes after administration", "method": "The ability of GLYX-13 to block the radiant heat tail flick response was determined in male rats. Groups of 10 male rats were administered either saline or GLYX-13 at 1, 5, or 10 mg/kg via i.v. injection, and five minutes following administration, the tail of each rat was exposed to a radiant heat stimulus. The time to elicit a characteristic tail flick was determined for each rat and the mean response time was determined for each group."}, "[10]": {"test_system": "rat model of peripheral neuropathy", "experiment": "rat model of peripheral neuropathy, mechanical allodynia (Example 5)", "type": "in vivo", "conditions": "for group mean withdrawal threshold, nerve-injured paw: approximately 60 min post-dose", "method": "as §1, with “FIG. 2” for “FIG. 3”, “the result” for “the results”, “of eight” for “of 12”, “were” for “were 5”, “at 15” for “at 60”\nThe ability of GLYX-13 to attenuate neuropathic pain was assessed in a rat model of peripheral neuropathy. In this study, four groups of eight male rats were subjected to surgically-induced peripheral neuropathy. Peripheral neuropathy was induced in the right hind limb of male rats by loose ligation of the right sciatic nerve according to the method of Bennett and Xie (Bennett and Xie, 1988). After 8-10 days, a peripheral neuropathy had developed in the right hind limbs as determined by sensitivity to both mechanical allodynia and thermal hyperalgesia. This pilot study consisted of four groups of eight male rats. Days 12-13 post surgery, vehicle (0.9% saline) or GLYX-13 at 5, 10, and 20 mg/kg were administered, and rats were tested for sensitivity to both the thermal stimulus and mechanical allodynia. […] The results for GLYX-13 15 minutes post dose in this rodent neuropathy model are shown FIG. 2."}}, "note": "Peptide text beside a SMILES is read from it.", "data": [{"smiles": "NCC1(CC(=O)O)CCCCC1", "note": "[gabapentin, reference compound]", "values": [{"measurement": "antinociceptive efficacy (percentage analgesia, late phase response)", "setting": "[1]", "result": "dose-dependent efficacy"}, {"measurement": "ataxia", "setting": "[1]; subcutaneous, doses of the formalin study (data not shown)", "result": "ataxic at the highest dose"}]}, {"smiles": "C[C@@H](O)[C@H](N)C(=O)N1CCC[C@H]1C(=O)N1CCC[C@H]1C(=O)N[C@H](C(N)=O)[C@@H](C)O", "note": "[GLYX-13, L-threonyl-L-prolyl-L-prolyl-L-threonine amide] (H-TPPT-NH2)", "values": [{"measurement": "acetic acid induced writhing behavior", "setting": "[2]", "result": "did not block acetic acid induced writhing behavior"}, {"measurement": "ataxia, rotor-rod apparatus", "setting": "[3]", "result": "not found to induce ataxia"}, {"measurement": "contralateral effects", "setting": "[4]", "result": "no evidence of any contralateral effects"}, {"measurement": "sensitivity of the nerve-injured paw to mechanical stimuli (Von Frey filaments)", "setting": "[4]; free-base, approximately 15 and 60 min post dose", "result": "statistically significant reduction in the sensitivity"}, {"measurement": "ataxia", "setting": "[1]; rat, in vivo, sc", "result": "not ataxic at any of the doses examined"}, {"measurement": "antinociceptive efficacy (percentage analgesia, late phase response)", "setting": "[1]", "result": "dose-dependent efficacy"}, {"measurement": "analgesia in the late phase (30-50 min) of the formalin test", "setting": "[5]", "result": "increased analgesia 8 days after administration"}, {"measurement": "crossing of the blood-brain barrier", "setting": "[6]", "result": "readily crosses the blood-brain barrier in an active form"}, {"measurement": "pain threshold (force to elicit paw withdrawal)", "setting": "[7]; male rats, yeast-inflamed paw, 1, 5, or 10 mg/kg i.v.", "result": "no significant effect on the pain threshold"}, {"measurement": "pain threshold (force to elicit paw withdrawal)", "setting": "[7]; rats dosed with 5 and 10 mg/kg i.v.", "result": "Slight, but not statistically significant, increases in the pain threshold"}, {"measurement": "antinociceptive action (mechanical allodynia)", "setting": "[8]", "result": "antinociceptive at both time points"}, {"measurement": "ataxia", "setting": "[8]", "result": "no evidence of ataxia"}, {"measurement": "response time to a radiant heat stimulus (tail flick)", "setting": "[9]", "result": "did not result in a change in the response time"}, {"measurement": "withdrawal threshold, nerve-injured paw", "setting": "[10]; 10 mg/kg i.v., 15 minutes post dose", "result": "5.98 ± 2.25", "unit": "g"}, {"measurement": "withdrawal threshold, nerve-injured paw", "setting": "[10]; 10 mg/kg i.v., 60 minutes post dose", "result": "7.26 ± 2.19", "unit": "g"}, {"measurement": "responses of the uninjured (contralateral) hind paw", "setting": "[10]; 5, 10, and 20 mg/kg, any of the time points tested", "result": "No marked changes"}, {"measurement": "withdrawal threshold, nerve-injured paw", "setting": "[10]; doses of 5 and 20 mg/kg", "result": "small but distinct increases in withdrawal threshold"}, {"measurement": "group mean withdrawal threshold, nerve-injured paw", "setting": "[10]; high dose (20 mg/kg i.v.)", "result": "2.08 ± 1.21", "unit": "g"}, {"measurement": "group mean withdrawal threshold, nerve-injured paw", "setting": "[10]; low dose group (5 mg/kg i.v.)", "result": "5.04 ± 3.09", "unit": "g"}, {"measurement": "withdrawal threshold in the nerve injured hind paw to mechanical allodynia", "setting": "[10]; male rats, 5, 10, and 20 mg/kg", "result": "marked increase in the withdrawal threshold"}]}]}
